Values quoted from earlier work as cited in publication PMC7395068, “The evolution of strategies to minimise the risk of human drug-induced liver injury (DILI) in drug discovery and development” (Archives of Toxicology, 2020).
Like-named read-outs stand apart in the source and are kept apart here.

Assays:
[1] = cited from earlier work
[2] = cited from earlier work; remark: listed apart in the source
[3] = system: THLE-Null and THLE-3A4 cells; settings: In vitro Assay; ref Gustafsson 2014; cited from earlier work
[4] = system: HepG2 cells, primary human hepatocytes; settings: cited from earlier work
[5] = system: PHH; settings: In vitro Assay; ref Proctor 2017; cited from earlier work
[6] = cited from earlier work; remark: listed apart in the source
[7] = system: hLiMTs; settings: In vitro Assay; ref Proctor 2017; cited from earlier work
[8] = system: primary human hepatocytes, NIH3T3 fibroblasts, BSEP, CYP3A4; settings: cited from earlier work
[9] = system: PHH spheroids; settings: In vitro Assay; ref Vorrink 2018; cited from earlier work
[10] = system: HepG2 C3A spheroid, BSEP, Glu/Gal in HepG2 cells, bioactivation; settings: cited from earlier work
[11] = system: THLE or HepG2 cells, isolated mitochondria, BSEP; settings: cited from earlier work
[12] = system: rBsep; settings: In vitro Assay; ref Dawson 2012; cited from earlier work
[13] = system: human hepatocytes; settings: cited from earlier work
[14] = system: HepG2 cells; settings: In vitro Assay; ref O'Brien 2006; cited from earlier work
[15] = FDA drug labelling score, ref Chen 2011
[16] = LTKB DILIrank category, ref Chen 2016
[17] = binary DILI call, ref Chen 2016
[18] = In vitro Assay, ref Garside 2014
[19] = In vitro Assay, ref Schadt 2015
[20] = In vitro Assay, ref Williams 2019

## Nc1nc(NC2CC2)c2ncn([C@H]3C=C[C@@H](CO)C3)c2n1 [abacavir]
[1]; [15]
  DILI Score (FDA) (1-8): 8
[2]; [16]
  DILI severity category: vMost-DILI-Concern

## C[C@H]1O[C@H](O[C@H]2[C@H](O)[C@@H](O)[C@@H](O[C@H]3[C@H](O)[C@@H](O)C(O)O[C@@H]3CO)O[C@@H]2CO)[C@H](O)[C@@H](O)[C@@H]1N[C@H]1C=C(CO)[C@@H](O)[C@H](O)[C@H]1O (some centres unmarked) [acarbose]
[1]; in vivo
  DILI Score (FDA) (1-8): 5
[2]; in vivo
  DILI +VE (5-8), DILI -VE (-4): +VE
  DILI severity category: vMost-DILI-Concern

## CN(C)c1nc(N(C)C)nc(N(C)C)n1 [altretamine]
[1]; [15]
  DILI Score (FDA) (1-8): 2
[2]; [16]
  DILI severity category: Ambiguous DILI-concern
[2]; [17]
  DILI +VE (5-8), DILI -VE (-4): -VE

## CC(C(=O)O)c1ccc2oc(-c3ccc(Cl)cc3)nc2c1 (centres unmarked) [benoxaprofen]
[3]
  THLE-Null: -VE
  THLE-Null/3A4: -VE
[4]; [18]
  Cluster 1-6 +VE Assay: +VE
[5]
  PHH ATP <100uM: -VE
[6]; ref Aleo 2019
  In vivo DILI: +VE
[6]; ref Dawson 2012
  In vivo DILI: +VE
[6]; ref Garside 2014
  In vivo DILI: +VE
[6]; ref Gustafsson 2014
  In vivo DILI: +VE
[6]; ref Proctor 2017
  In vivo DILI: +VE
[6]; ref Schadt 2015
  In vivo DILI: +VE
[6]; ref Vorrink 2018
  In vivo DILI: +VE
[6]; ref Williams 2019
  In vivo DILI: +VE
[7]
  hLiMTs ATP <100uM: -VE
[8]; [19]
  Cellular toxicity (3T3 cells): -VE
  Combined Assay: +VE
  GSH adduct HML: -VE
  Hepatocyte cellular toxicity: -VE
  MitoTox 3T3: -VE
  TDI CYP3A4: -VE
  hBSEP inhibition: -VE
[9]
  hLiMTs ATP <20 x Cmax: -VE
[10]; [20]
  Bayesian Machine Learning: +VE
[11]; In vitro Assay, ref Aleo 2019
  Partition Hybrid HRM Score: +VE
  Ro2 Hybrid HRM Score: +VE
[12]
  Inhibition of rBsep cutoff<1& cmax u>.2: +VE
  Inhibition of rBsep cutoff<3: +VE
[2]; ref Chen 2016
  DILI +VE (5-8), DILI -VE (-4): +VE
  DILI severity category: vMost-DILI-Concern

## CC(C)NCC(O)COc1ccc(COCCOC(C)C)cc1 (centres unmarked) [bisoprolol]
[1]; [15]
  DILI Score (FDA) (1-8): 3
[2]; [16]
  DILI severity category: Ambiguous DILI-concern
[2]; [17]
  DILI +VE (5-8), DILI -VE (-4): -VE

## Cc1ccc(-c2cc(C(F)(F)F)nn2-c2ccc(S(N)(=O)=O)cc2)cc1 [celecoxib]
[3]
  THLE-Null: +VE
[4]; [18]
  Cluster 1-6 +VE Assay: +VE
[5]
  PHH ATP <100uM: +VE (IC50 threshold of 100 µM)
[6]; ref Garside 2014
  In vivo DILI: +VE
[6]; ref Gustafsson 2014
  In vivo DILI: +VE
[6]; ref Proctor 2017
  In vivo DILI: +VE
[6]; ref Schadt 2015
  In vivo DILI: +VE
[6]; ref Vorrink 2018
  In vivo DILI: +VE
[6]; ref Williams 2019
  In vivo DILI: +VE
[7]
  hLiMTs ATP <100uM: +VE (IC50 threshold of 100 µM)
[8]; [19]
  Cellular toxicity (3T3 cells): +VE
  GSH adduct HML: -VE
  Hepatocyte cellular toxicity: -VE
  MitoTox 3T3: -VE
  TDI CYP3A4: -VE
  hBSEP inhibition: -VE
[9]
  hLiMTs ATP <20 x Cmax: +VE (IC20 < 20 × Cmax.tot cut-off)
[10]; [20]
  Bayesian Machine Learning: +VE
[2]; ref Chen 2016
  DILI +VE (5-8), DILI -VE (-4): +VE
  DILI severity category: vLess-DILI-Concern

## CN(C)CCCN1c2ccccc2CCc2ccc(Cl)cc21 [clomipramine]
[4]; [18]
  Cluster 1-6 +VE Assay: +VE
[13]; In vitro Assay, ref Xu 2008
  Structural based (HCI): -VE
[10]; [20]
  Bayesian Machine Learning: +VE

## N[C@@H]1CON=C1O [cycloserine]
[3]
  THLE-Null: -VE
[10]; [20]
  Bayesian Machine Learning: -VE
[12]
  Inhibition of rBsep cutoff<1& cmax u>.2: -VE
  Inhibition of rBsep cutoff<3: -VE

## O=C(O)c1ccc(-n2nc(-c3ccccc3O)nc2-c2ccccc2O)cc1 [deferasirox]
[1]; FDA drug labelling score, scale 1-8, ref Chen 2011
  DILI Score (FDA) (1-8): 7
[2]; binary in vivo human DILI call, ref Chen 2016
  DILI +VE (5-8), DILI -VE (-4): +VE
[2]; human DILI, LTKB DILIrank category, ref Chen 2016
  DILI severity category: vMost-DILI-Concern

## O=C(O)Cc1csc(-c2ccc(Cl)cc2)n1 [fenclozic acid]
[3]
  THLE-Null: -VE
  THLE-Null/3A4: -VE
[4]; [18]
  Cluster 1-6 +VE Assay: +VE
[6]; ref Dawson 2012
  In vivo DILI: +VE
[6]; ref Garside 2014
  In vivo DILI: +VE
[6]; ref Gustafsson 2014
  In vivo DILI: +VE
[6]; ref Williams 2019
  In vivo DILI: +VE
[10]; [20]
  Bayesian Machine Learning: +VE
[12]
  Inhibition of rBsep cutoff<1& cmax u>.2: -VE
  Inhibition of rBsep cutoff<3: -VE
[2]; ref Chen 2016
  DILI +VE (5-8), DILI -VE (-4): +VE
  DILI severity category: vMost-DILI-Concern

## Cc1onc(-c2c(F)cccc2Cl)c1C(=O)N[C@@H]1C(=O)N2[C@@H]1SC(C)(C)[C@@H]2C(=O)O [flucloxacillin]
[3]
  THLE-Null: -VE
  THLE-Null/3A4: -VE
[5]
  PHH ATP <100uM: +VE (IC50 threshold of 100 µM)
[6]; ref Dawson 2012
  In vivo DILI: +VE
[6]; ref Gustafsson 2014
  In vivo DILI: +VE
[6]; ref Proctor 2017
  In vivo DILI: +VE
[6]; ref Williams 2019
  In vivo DILI: +VE
[7]
  hLiMTs ATP <100uM: -VE
[10]; [20]
  Bayesian Machine Learning: +VE
[12]
  Inhibition of rBsep cutoff<1& cmax u>.2: -VE
  Inhibition of rBsep cutoff<3: -VE

## CC(C)Cc1ccc(CC(=O)O)cc1 [ibufenac]
[4]; [18]
  Cluster 1-6 +VE Assay: +VE
[6]; ref Garside 2014
  In vivo DILI: +VE
[6]; ref Schadt 2015
  In vivo DILI: +VE
[6]; ref Williams 2019
  In vivo DILI: +VE
[8]; [19]
  Cellular toxicity (3T3 cells): -VE
  Combined Assay: +VE
  GSH adduct HML: +VE
  Hepatocyte cellular toxicity: -VE
  MitoTox 3T3: -VE
  TDI CYP3A4: -VE
  hBSEP inhibition: -VE
[10]; [20]
  Bayesian Machine Learning: +VE
[2]; ref Chen 2016
  DILI +VE (5-8), DILI -VE (-4): +VE
  DILI severity category: vMost-DILI-Concern

## CC(C(=O)O)c1ccc(C(=O)c2cccs2)cc1 (centres unmarked) [suprofen]
[3]
  THLE-Null: -VE
  THLE-Null/3A4: -VE
[4]; [18]
  Cluster 1-6 +VE Assay: -VE
[6]; ref Garside 2014
  In vivo DILI: +VE
[6]; ref Gustafsson 2014
  In vivo DILI: +VE
[6]; ref Williams 2019
  In vivo DILI: +VE
[10]; ref Williams 2019
  Bayesian Machine Learning: +VE

## O=C(O)COc1ccc(C(=O)c2cccs2)c(Cl)c1Cl [tienilic acid]
[4]; [18]
  Cluster 1-6 +VE Assay: +VE
[5]
  PHH ATP <100uM: -VE
[6]; […]
  In vivo DILI: +VE
[6]; ref Garside 2014
  In vivo DILI: +VE
[6]; ref Proctor 2017
  In vivo DILI: +VE
[6]; ref Williams 2019
  In vivo DILI: +VE
[7]
  hLiMTs ATP <100uM: -VE
[10]; [20]
  Bayesian Machine Learning: +VE
[2]; ref Chen 2016
  DILI +VE (5-8), DILI -VE (-4): +VE
  DILI severity category: vMost-DILI-Concern

## Cc1ccc(C(=O)c2ccc(CC(=O)O)n2C)cc1 [tolmetin]
[3]
  THLE-Null: -VE
  THLE-Null/3A4: -VE
[4]; [18]
  Cluster 1-6 +VE Assay: +VE
[13]; In vitro Assay, ref Xu 2008
  Structural based (HCI): +VE
[6]; ref Garside 2014
  In vivo DILI: +VE
[6]; ref Gustafsson 2014
  In vivo DILI: +VE
[6]; ref Williams 2019
  In vivo DILI: +VE
[6]; ref Xu 2008
  In vivo DILI: +VE
[10]; [20]
  Bayesian Machine Learning: +VE
[2]; ref Chen 2016
  DILI +VE (5-8), DILI -VE (-4): +VE
  DILI severity category: vLess-DILI-Concern

## CC(=O)CC(c1ccccc1)c1c(O)c2ccccc2oc1=O (centres unmarked) [warfarin]
[4]
  Cluster 1-6 +VE Assay: -VE
[13]
  Structural based (HCI): -VE
[8]
  Cellular toxicity (3T3 cells): -VE
  Combined Assay: -VE
  GSH adduct HML: -VE
  Hepatocyte cellular toxicity: -VE
  MitoTox 3T3: -VE
  TDI CYP3A4: -VE
  hBSEP inhibition: -VE
[10]
  Bayesian Machine Learning: +VE
[11]
  Partition Hybrid HRM Score: +VE
  Ro2 Hybrid HRM Score: -VE

## Cc1cc(CC(=O)O)n(C)c1C(=O)c1ccc(Cl)cc1 [zomepirac]
[3]
  THLE-Null: -VE
  THLE-Null/3A4: -VE
[13]; In vitro Assay, ref Xu 2008
  Structural based (HCI): -VE
[5]
  PHH ATP <100uM: -VE
[14]
  Structural based (HCI): +VE
[6]; […]
  In vivo DILI: +VE
[6]; ref Gustafsson 2014
  In vivo DILI: -VE
[6]; ref O'Brien 2006
  In vivo DILI: -VE
[6]; ref Proctor 2017
  In vivo DILI: -VE
[6]; ref Schadt 2015
  In vivo DILI: +VE
[6]; ref Williams 2019
  In vivo DILI: -VE
[6]; ref Xu 2008
  In vivo DILI: -VE
[7]
  hLiMTs ATP <100uM: -VE
[8]; [19]
  Cellular toxicity (3T3 cells): -VE
  Combined Assay: +VE
  GSH adduct HML: +VE
  Hepatocyte cellular toxicity: -VE
  MitoTox 3T3: -VE
  TDI CYP3A4: -VE
  hBSEP inhibition: -VE
[10]; [20]
  Bayesian Machine Learning: +VE
